≈ marks a conversion by molar mass, not a printed value.
How the values were obtained:
[1] = Solubility of the compound in phosphate buffer solution at pH 7.4 incubated for 1 hr in shaker and subsequently equilibrated for 72 hrs by LC/MS analysis; format: physicochemical
[2] = Solubility of the compound in fasted state simulated intestinal fluid at pH 6.8 incubated for 1 hr in shaker and subsequently equilibrated for 72 hrs by LC/MS analysis; format: physicochemical
[3] = Solubility of the compound in 0.01N HCl at pH 2 incubated for 1 hr in shaker and subsequently equilibrated for 72 hrs by LC/MS analysis; format: physicochemical
[4] = Apparent permeability in pig LLC-PK1 cells at 5 uM; format: ADME, cell-based, Sus scrofa
[5] = Volume of distribution at steady state in Sprague-Dawley rat; format: ADME; conditions: in vivo, read-out: Vdss
[6] = Oral bioavailability in Sprague-Dawley rat at 5 mg/kg; format: ADME, organism-based; conditions: in vivo
[7] = Volume of distribution at steady state in dog; format: ADME, Canis lupus familiaris; conditions: in vivo, read-out: Vdss
[8] = Oral bioavailability in dog; format: ADME, organism-based, Canis lupus familiaris; conditions: in vivo
[9] = Drug uptake in plasma of SCID-Beige mouse xenografted with human KMS-12-BM cells at 25 to 100 mg/kg, po administered once daily for 14 days and measured twice per week; format: ADME, organism-based; conditions: in vivo, 336 h

SMILES	solubility thermodynamic at 72 h [1]	solubility thermodynamic at 72 h [2]	solubility thermodynamic at 72 h [3]	Papp at 5 µM [4]	Vd [5]	bioavailability [6]	Vd [7]	bioavailability [8]	Drug uptake [9]
CC(C)n1c(NC(C)(C)C)nc2c(-c3cc4c([nH]3)[C@@H](C)NC4=O)cccc2c1=O	11 µM (≈ 4.33 µg/mL)	68 µM (≈ 26.8 µg/mL)	26 µM (≈ 10.2 µg/mL)						
C[C@H]1NC(=O)c2cc(-c3cccc4c(=O)n(C)c(NC5(C)CC5)nc34)[nH]c21	56 µM (≈ 20.4 µg/mL)	344 µM (≈ 125 µg/mL)	500 µM (≈ 182 µg/mL)	31 ×10⁻⁶ cm/s					
C[C@H]1NC(=O)c2cc(-c3cccc4c(=O)n(C5CC5)c(NC5(C)CC5)nc34)[nH]c21	78 µM (≈ 30.4 µg/mL)	144 µM (≈ 56.1 µg/mL)	458 µM (≈ 178 µg/mL)	23 ×10⁻⁶ cm/s	1.2 L/kg	68%			
C[C@H]1NC(=O)c2cc(-c3cccc4c(=O)n(C(C)(C)C)c(NC(C)(C)C)nc34)[nH]c21	< 5 µM	58 µM (≈ 23.6 µg/mL)	< 5 µM						
C[C@H]1NC(=O)c2cc(-c3cccc4c(=O)n(CC5(O)CC5)c(NC5(C)CC5)nc34)[nH]c21	< 5 µM	15 µM (≈ 6.29 µg/mL)	43 µM (≈ 18 µg/mL)						
C[C@H]1NC(=O)c2cc(-c3cccc4c(=O)n([C@@H](C)c5cn(C)cn5)c(NC5(C)CC5)nc34)[nH]c21	60 µM (≈ 27.5 µg/mL)	469 µM (≈ 215 µg/mL)	464 µM (≈ 212 µg/mL)	35 ×10⁻⁶ cm/s	1 L/kg	19%			
C[C@H]1NC(=O)c2cc(-c3cccc4c(=O)n(C5(C)CC5)c(NC(C)(C)C)nc34)[nH]c21	< 5 µM	36 µM (≈ 14.6 µg/mL)	< 5 µM						
C[C@H](c1cn(C)cn1)n1c(NC2(C)CC2)nc2c(-c3cc4c([nH]3)[C@@H](C)NC4=O)cccc2c1=O	53 µM (≈ 24.2 µg/mL)	435 µM (≈ 199 µg/mL)	485 µM (≈ 222 µg/mL)						
CC(c1cn(C)cn1)n1c(NC(C)(C)C)nc2c(-c3cc4c([nH]3)[C@@H](C)NC4=O)cccc2c1=O (stereo not given in full)	86 µM (≈ 39.5 µg/mL)	489 µM (≈ 225 µg/mL)	423 µM (≈ 194 µg/mL)						
C[C@H]1NC(=O)c2cc(-c3cccc4c(=O)n(C5CCC5)c(NC5(C)CC5)nc34)[nH]c21	< 5 µM	379 µM (≈ 153 µg/mL)	441 µM (≈ 178 µg/mL)						
C[C@H]1NC(=O)c2cc(-c3cccc4c(=O)n(CC5(N)CC5)c(NC5(C)CC5)nc34)[nH]c21	134 µM (≈ 56.1 µg/mL)	280 µM (≈ 117 µg/mL)	454 µM (≈ 190 µg/mL)						
C[C@H]1NC(=O)c2cc(-c3cccc4c(=O)n(Cc5cn(C)cn5)c(NC(C)(C)C)nc34)[nH]c21	22 µM (≈ 9.8 µg/mL)	131 µM (≈ 58.4 µg/mL)	94 µM (≈ 41.9 µg/mL)						
C[C@H]1NC(=O)c2cc(-c3cccc4c(=O)n(C5(C)CC5)c(NC5(C)CC5)nc34)[nH]c21	31 µM (≈ 12.5 µg/mL)	185 µM (≈ 74.6 µg/mL)	490 µM (≈ 198 µg/mL)	32 ×10⁻⁶ cm/s	1.7 L/kg	85%	2.1 L/kg	56%	Dose-dependent effect
C[C@H]1NC(=O)c2cc(-c3cccc4c(=O)n(C(C)(C)C)c(NC5(C)CC5)nc34)[nH]c21	< 5 µM	326 µM (≈ 132 µg/mL)	495 µM (≈ 201 µg/mL)						
CC(c1cn(C)cn1)n1c(NC2(C)CC2)nc2c(-c3cc4c([nH]3)[C@@H](C)NC4=O)cccc2c1=O (mixture of isomers)	52 µM	500 µM	500 µM						

Other lines, results leading:

solubility thermodynamic at 72 h [1]	solubility thermodynamic at 72 h [2]	solubility thermodynamic at 72 h [3]	Papp at 5 µM [4]	Vd [5]	bioavailability [6]	Vd [7]	bioavailability [8]	Drug uptake [9]	SMILES
13 µM (≈ 5.09 µg/mL)	175 µM (≈ 68.5 µg/mL)	95 µM (≈ 37.2 µg/mL)							C[C@H]1NC(=O)c2cc(-c3cccc4c(=O)n(C5CC5)c(NC(C)(C)C)nc34)[nH]c21
23 µM (≈ 8.41 µg/mL)	104 µM (≈ 38 µg/mL)	60 µM (≈ 21.9 µg/mL)	46 ×10⁻⁶ cm/s						C[C@H]1NC(=O)c2cc(-c3cccc4c(=O)n(C)c(NC(C)(C)C)nc34)[nH]c21
13 µM (≈ 5.25 µg/mL)	179 µM (≈ 72.2 µg/mL)	214 µM (≈ 86.3 µg/mL)							C[C@H]1NC(=O)c2cc(-c3cccc4c(=O)n(CC5CC5)c(NC5(C)CC5)nc34)[nH]c21
< 5 µM	12 µM (≈ 4.87 µg/mL)	< 5 µM							C[C@H]1NC(=O)c2cc(-c3cccc4c(=O)n(CC5CC5)c(NC(C)(C)C)nc34)[nH]c21
< 5 µM	< 5 µM	256 µM (≈ 119 µg/mL)							C[C@H]1NC(=O)c2cc(-c3cccc4c(=O)n(C[C@H]5CN(C)CCO5)c(NC(C)(C)C)nc34)[nH]c21
26 µM (≈ 11 µg/mL)	131 µM (≈ 55.4 µg/mL)	347 µM (≈ 147 µg/mL)							C[C@H]1NC(=O)c2cc(-c3cccc4c(=O)n(CC(C)(C)N)c(NC(C)(C)C)nc34)[nH]c21
19 µM (≈ 8.28 µg/mL)	60 µM (≈ 26.1 µg/mL)	< 5 µM							C[C@H]1NC(=O)c2cc(-c3cccc4c(=O)n(C[C@H]5CCCO5)c(NC(C)(C)C)nc34)[nH]c21
< 5 µM	42 µM (≈ 17.7 µg/mL)	500 µM (≈ 210 µg/mL)							C[C@H]1NC(=O)c2cc(-c3cccc4c(=O)n(CC5(N)CC5)c(NC(C)(C)C)nc34)[nH]c21
6 µM (≈ 2.53 µg/mL)	32 µM (≈ 13.5 µg/mL)	14 µM (≈ 5.9 µg/mL)							C[C@H]1NC(=O)c2cc(-c3cccc4c(=O)n(CC5COC5)c(NC(C)(C)C)nc34)[nH]c21
122 µM (≈ 56.7 µg/mL)	283 µM (≈ 131 µg/mL)	500 µM (≈ 232 µg/mL)							C[C@H]1NC(=O)c2cc(-c3cccc4c(=O)n(C[C@@H]5CN(C)CCO5)c(NC(C)(C)C)nc34)[nH]c21
12 µM (≈ 5.23 µg/mL)	15 µM (≈ 6.53 µg/mL)	28 µM (≈ 12.2 µg/mL)							C[C@H]1NC(=O)c2cc(-c3cccc4c(=O)n(C[C@@H]5CCCO5)c(NC(C)(C)C)nc34)[nH]c21
< 5 µM	< 5 µM	< 5 µM							C[C@H]1NC(=O)c2cc(-c3cccc4c(=O)n(CC5(O)CC5)c(NC(C)(C)C)nc34)[nH]c21

Reference: ChEMBL document CHEMBL4368910, “Discovery of ( R)-8-(6-Methyl-4-oxo-1,4,5,6-tetrahydropyrrolo[3,4- b]pyrrol-2-yl)-3-(1-methylcyclopropyl)-2-((1-methylcyclopropyl)amino)quinazolin-4(3 H)-one, a Potent and Selective Pim-1/2 Kinase Inhibitor for Hematological Malignancies” (J Med Chem, 2019)
